pIC50: −log10 of the molar value. Values joined by “and” are separate entries in the source; they are usually repeats but may differ in a detail not shown here. Equal entries are not always repeated. Where two headings read alike, the source gives them in different places. Positions of bridges follow the written chain, without caps; N, C: chain ends. Non-standard residues stand in square brackets, D forms with d. d2Nal = N[C@H](Cc1ccc2ccccc2c1)C(=O)O; dAbu = CC[C@@H](N)C(=O)O
How the values were obtained:
Format in all cases: cell-based
[1] = system: VEGF-stimulated MAP kinase activation; experiment: Inhibition of VEGF-stimulated MAP kinase (p42/p44, Erk2/Erk1) activation in Flk-1/3T3 cells; conditions: Flk-1/3T3, VEGF stimulated
Description: (§1) Starved NIII 3T3 cells (PDGF-BB and PDGF-AA), NIH 3T3 cells overexpressing either EGFR (EGF) or Flk-1 (VEGF) are pre-treated with the indicated concentrations of GFB-111 for 5 minutes before 10 minutes of stimulation with PDGF-BB (10 ng/ml), PDGF-AA (10 ng/ml), EGF (100 ng/ml) and VEGF (50 ng/ml). Cell lysates are run on SDS-PAGE gels, then transferred to nitrocellulose and Western blotted with anti-phosphotyrosine (4G 10) or anti-phosphorylated Erk1/Erk2 (New England Biolabs).
(§2) In other experiments, starved NIH 3T3 cells (PDGF-AA, PDGF-BB, aFGF, bFGF), NIH 3T3 cells overexpressing EGFR. IGF-1R or Flk-1 and the human breast carcinoma SkBr3 that overexpresses ErbB2 (HRGβ) are pretreated with GFB-111 (100 μM) for 5 min before 10 min stimulation with the indicated growth factors at the concentrations shown above and aFGF (10 ng/ml), bFGF (50 ng/ml), IGF-1 (50 ng/ml) and HRGβ (10 ng/ml). Cell lysates are then immunoblotted with anti-phospho Erk1/Erk2 as described above.
(§3) In order to identify molecules that would bind vascular endothelial growth factor (VEGF), Flk-1/3T3 cell-based assay is used that relies on VEGF-stimulation of its receptor, Flk-1, tyrosine phosphorylation and subsequent MAP-kinase activation. The assay used herein identical to that used for PDGF, except that NIH 3T3 cells that overexpress Flk-1 are used. GFB-116, which has four identical loops with the sequence GKGK (SEQ ID NO. 10) is shown to be very potent and selective toward blocking the ability of VEGF to stimulate Flk-1 tyrosine phosphorylation and subsequent MAP-kinase activation as measured by phospho erk-1 and erk-2 also referred to in the Table as p42 and p44 (Table 4A). A preferred embodiment of the invention is a compound that binds to a vascular endothelial growth factor, of the general structure III (above) in which R is n-butyl, n-propyl, or benzyl, and X comprise covalently attached identical cyclic peptide loops wherein R1, R2, R3, and R4 are each amino acid side chains, as broadly defined above, that define a tetrapeptide sequence, wherein said tetrapeptide is covalently attached at the amino and carboxy termini of said tetrapeptide to 3-aminomethyl-5-aminobenzamide linking group, and wherein said tetrapeptide sequence is GKGK (SEQ ID NO. 10), GDGY (SEQ ID NO. 6), or functionally related derivatives thereof.

[2] = system: VEGF-stimulated Flk-1 tyrosine phosphorylation; experiment: Inhibition of VEGF-stimulated Flk-1 tyrosine phosphorylation in Flk-1/3T3 cells; conditions: Flk-1/3T3, VEGF stimulated; read-out: (IC50) Inhibition Flk-1-Y-P
Description: as §1, §3

[3] = system: PDGF-stimulated PDGFR tyrosine phosphorylation; experiment: Inhibition of PDGF-stimulated PDGFR tyrosine phosphorylation in NIH 3T3 cells (anti-phosphotyrosine Western blot); conditions: 5 min pretreatment, PDGF 10 ng/ml 10 min, read-out: (IC50) Inhibition PDGFR-Y-P
Description: Starved NIH 3T3 cells are pretreated with various growth factor binding agents (0-100 μM) for 5 min before stimulation with PDGF (10 ng/mL) for 10 min. The cells are then harvested and lysed, and the proteins from the lysates separated by SDS-PAGE and immunoblotted with an anti-phosphotyrosine antibody (4G10: Upstate Biotechnology, Lake Placid, N.Y.). The phosphotyrosine PDGF receptor bands are scanned, and the concentrations of growth factor binding molecules that inhibited the ability of PDGF to stimulate PDGFR tyrosine phosphorylation by 50% are determined.
as §1
A novel series of protein surface binding agents are prepared that bind PDGF and disrupt its signaling function. The molecules are composed of a central calix[4] arene scaffold to which is attached four peptide loop domains (FIG. 1). The peptide loop component is based on a cyclic hexapeptide in which two residues are replaced by a 3-aminomethylbenzoate dipeptide mimetic containing a 5-amino substituent for attachment to the scaffold. The resulting molecules (as shown in Table 1) contain a functionalized and variable surface approximately 500 Å^2 in area. Several peptide loop sequences are synthesized (Table 1) to provide molecular surfaces with negatively and positively charged as well as hydrophobic regions designed to bind to complementary areas on the target growth factor. To identify PDGF binding molecules from this library, a cell-based screening assay is developed with NIH 3T3 cells to detect molecules capable of blocking PDGF-BB-induced tyrosine autophosphorylation of the PDGF receptor. The ability of the identified molecules to bind PDGF-BB and inhibit interaction with its receptor is then confirmed biochemically. Starved NIH 3T3 cells are pretreated for 5 min with the synthetic molecules prior to stimulation with PDGF for 10 min. The effects of the molecules on PDGF-stimulated receptor tyrosine phosphorylation are determined by the antiphosphotyrosine Western blotting as described in Table 1. […] GFB-111 has four-fold symmetry containing 4 identical peptide loops with negative and hydrophobic residues, GlyAspGlyTyr (GDGY) (SEQ ID NO. 6), that are designed to be complementary to the PDGF surface involved in binding to PDGFR. The area of PDGF-BB that binds PDGFR is composed primarily of positive and hydrophobic residues.
Starved NIH 3T3 cells are pretreated with the various GFBs (0-100 μM) for 5 min. prior to stimulation with PDGF (10 ng/ml) for 10 min. The cells are then harvested lysed and the proteins from the lysates are separated by SDS-PAGE and immunoblotted with an anti-phosphotyrosine antibody (4G10, Upstate Biotechnology, Lake Placid, N.Y.). The phosphotyrosine PDGF receptor bands are scanned and the concentrations of GFBs that inhibit the ability of PDGF to stimulate PDGFR tyrosine phosphorylation by 50% are determined. Data for each compound is representative of at least two independent experiments. FIG. 1 illustrates the structure of growth factor binders. GFBs are synthesized as described by Park, H. D. et al., Protein surface recognition by synthetic receptors: A route to novel sub-micromolar inhibitors for chymotrypsin. J. Am. Chem. Soc. 121, 8-13 (1999); and Hamuro, Y. et al., A calixarene with four peptide loops: An antibody mimic for recognition of protein surfaces. Angew. Chemie Int. Ed. Engl. 36, 2680-2683 (1997), each herein incorporated by reference in its respective entirety.

[4] = system: PDGF-stimulated Erk1/Erk2 activation; experiment: Inhibition of PDGF-stimulated activation of MAPK Erk1/Erk2 (p44/p42) in NIH 3T3 cells; conditions: NIH 3T3, PDGF stimulated
Description: as §1, §2

[5] = system: IGF-1 stimulated IGF-1R tyrosine phosphorylation; experiment: Inhibition of IGF-1 stimulated IGFR tyrosine phosphorylation in IGFR/3T3 cells; conditions: 100 μM; IGFR/3T3, IGF-1 stimulated
Description: (§4) The ability of the GFB library to block the ability of IGF-1 to stimulate the IFG-1 R tyrosine phosphorylation and MAP kinase activation is evaluated using the cell assay described above with IGF-1R/3T3 cells as target cell. […] A preferred embodiment of the invention is a compound that binds to an insulin-like growth factor-1, of the general structure III, wherein R is n-butyl, n-propyl, or benzyl, and X1, X2, X3, and X4 optionally comprise identical cyclic peptide loops of the general structure II, and wherein R1, R2, R3, and R4 are each amino acid side chains that define a tetrapeptide sequence, wherein said tetrapeptide is covalently attached at the amino and carboxy termini of said tetrapeptide to a 3-aminomethyl-5-aminobenzamide linking group.

[6] = system: IGF-1 stimulated MAP kinase activation; experiment: Inhibition of IGF-1 stimulated MAP kinase (p42/p44) activation in IGFR/3T3 cells; conditions: 100 μM; IGFR/3T3, IGF-1 stimulated
Description: as §2, §4

[7] = read-out: (IC50) Inhibition p42
[8] = read-out: (IC50) Inhibition p44
[9] = head p42/Erk2 (p42 for GFB-132 to 137), read-out: (IC50) Inhibition p42/Erk2

Substance	pIC50 [1, 7]	pIC50 [1, 8]	pIC50 [2]	pIC50 [3]	pIC50 [4, 9]	% Inhibition at 100 μM IGF1R-Y-P [5]	% Inhibition at 100 μM p42 [6] [%]	% Inhibition at 100 μM p44 [6]	pIC50 [4, 8]
GFGD [GFB-101]	< 4.00	< 4.00	< 4.00	< 3.30	< 3.30	–	–	–	–
GDDY [GFB-130]	–	–	–	–	–	22.7%	−19.7	−17.5%	–
GDGD [GFB-103]	–	–	–	< 3.30	< 3.30	–	–	–	–
GDGY [GFB-137]	–	–	–	6.40	5.54	36.0%	5.9	38.2%	4.33
GDDY [GFB-122]	–	–	–	5.77	4.72	38.4%	33.6	66.6%	–
GDGY [GFB-135]	–	–	–	5.72	5.49	16.2%	0.8	46.1%	4.62
GDGD [GFB-107]	–	–	> 5.00	5.60	5.00	–	57.3	59.7%	–
GDAD [GFB-110]	–	–	–	5.77	5.15	40.9% and 32.4%	–	55.4% and 47.1%	–
GDGD [GFB-104]	–	–	–	< 3.30	< 3.30	−28.4%	−0.19	22.4%	–
GDND [GFB-117]	–	–	–	5.24	4.44	4.9%	17.1	61.5%	–
GFB-121: But-Calix scaffold with peptide loops 4-D-AbuDGD (SEQ ID NO. 18) ([dAbu]DGD; linker N-C via 3‑aminomethyl‑5‑aminobenzamide; also: four loops attached to But-Calix scaffold)	–	–	–	5.25	5.07	33.8%	28.3	62.1%	–
PDGD [GFB-119]	–	–	–	4.70	4.49	16.7%	29.7	66.2%	–
GDFD [GFB-102]	< 4.00	< 4.00	–	< 3.30	–	–	–	–	–
GDGY [GFB-134]	–	–	–	5.72	5.60	16.8%	4.9	53.5%	5.59
GKGF [GFB-115]	–	–	–	< 4.30	< 4.30	−38.3%	−12.4	51.9%	–
GFB-118: But-Calix scaffold with peptide loops 4-D-2-NalDGD (SEQ ID NO. 17) ([d2Nal]DGD; linker N-C via 3‑aminomethyl‑5‑aminobenzamide; also: four loops attached to But-Calix scaffold)	–	–	–	6.15	5.92	1.5%	16.4	55.2%	–
GDDG [GFB-123]	–	–	–	< 4.30	< 4.30	24.2%	26.7	62.4%	–
GDDD [GFB-136]	–	–	–	5.52	4.60	40.6%	15.0	–	4.62
But-Calix scaffold with peptide loops 4-d-ADGD, (D-Ala)-Asp-Gly-Asp (SEQ ID NO. 3) ([dA]DGD; linker N-C via 3‑aminomethyl‑5‑aminobenzamide; also: peptide loops (4) attached to But-Calix scaffold) [GFB-108]	4.30	4.30	5.00	5.05	4.24	–	67.8	80.1%	–
GDLD [GFB-109]	–	–	–	5.12	4.82	–	68.3	79.7%	–
GDGY [GFB-132]	–	–	–	6.40	5.54	30.2%	11.0	39.4%	5.52
GDDD [GFB-129]	–	–	–	–	–	3.4%	2.8	33.4%	–
GDDG [GFB-131]	–	–	–	–	–	30.2%	−6.2	20.0%	–
GDDG [GFB-120]	–	–	–	5.89	5.77	35.4%	68.1	85.9%	–
GDGY [GFB-128]	–	–	–	4.59	< 4.30	−12.0%	−6.1	38.2%	–

— patent US8361970B2, “Growth factor binding molecules” (University of South Florida, priority 2000, dated 2013)
